Results as given in the NIST ThermoML archive (doi:10.1021/je101144k).
Numbers after ± are expanded uncertainties.

What was measured:
[1] = molar heat capacity at constant pressure; conditions: 101.33 kPa, Liquid, Small sample (50 mg) DSC
[2] = 101.33 kPa, Liquid; for viscosity: Concentric cylinders viscometry; for mass density: Pycnometric method

NCCO [2-aminoethan-1-ol]
Conditions | mass density, 303.15 K [kg/m3] | mass density, 313.15 K [kg/m3] | mass density, 323.15 K [kg/m3] | molar heat capacity at constant pressure, 303.15 K [J/K/mol] | molar heat capacity at constant pressure, 313.15 K [J/K/mol] | molar heat capacity at constant pressure, 323.15 K [J/K/mol] | viscosity, 303.15 K [mPa·s] | viscosity, 313.15 K [mPa·s] | viscosity, 323.15 K [mPa·s]
[1] | – | – | – | 163.7 ± 3.7 | 167.98 ± 3.7 | 172.25 ± 3.7 | – | – | –
[2] | 1008.7 ± 1.3 | 1000.4 ± 1.3 | 992.5 ± 1.3 | – | – | – | 15.36 ± 0.32 | 10.26 ± 0.21 | 7.19 ± 0.15
